Test results: patent US4048431A, “Alkylated derivatives of antibiotic BM123γ” (American Cyanamid Company, priority 1975, dated 1977)

Tested on: Escherichia coli US311
Test: in vivo protection of mice against lethal Escherichia coli US311 infection (single subcutaneous dose)
Parameters: species or system Escherichia coli US311 in Carworth Farms CF-1 mice
Conditions: Carworth Farms CF-1 mice, about 20 gm., infected intraperitoneally with lethal dose of E. coli US311 (10^-3 TSP dilution of 5 hour TSP blood culture)
Experimental: These new substances show high in vivo antibacterial activity in mice against Escherichia coli US311 when administered by a single subcutaneous dose to groups of Carworth Farms CF-1 mice, weight about 20 gm., infected intraperitoneally with a lethal dose of this bacteria in a 10^- 3 trypticase soy broth TSP dilution of a 5 hour TSP blood culture. In Table VI below is set forth the in vivo activity of typical products of this invention (prepared from the indicated carbonyl reagents) against Escherichia coli US311 in mice. The activity is expressed in terms of the ED50 or the dose in mg./kg. of body weight required to protect 50% of the mice against E. coli.

Row | Substance | ED50 (dose required to protect 50% of the mice against E. coli)
1 | 5-methoxyl-2-tetralyl-BM123γ | 0.18 mg./kg. of body weight
2 | 1-methyl-3,3-dimethoxypropyl-BM123γ | 0.75 mg./kg. of body weight
3 | 2-ethylhexyl-BM123γ | 0.37 mg./kg. of body weight
4 | 1-isopropyl-4-methylpentyl-BM123γ | 0.39 mg./kg. of body weight
5 | cyclobutyl-BM123γ | 0.38 mg./kg. of body weight
6 | 2-ethylcyclopentyl-BM123γ | 0.12 mg./kg. of body weight
7 | cycloheptyl-BM123γ | 0.3 mg./kg. of body weight
8 | 1,2-dimethylbutyl-BM123γ | 0.12 mg./kg. of body weight
9 | 1-ethyl-3-chloropropyl-BM123γ | 0.12 mg./kg. of body weight
